Where a SMILES comes first, the peptide text is derived from it. [ ]: non-standard residue; d: D form. The star is where a group is joined. Nva = CCC[C@H](N)C(=O)O; Cbz = O=C(OCc1ccccc1)*

The test system of one experiment is normal WI-38 cells. Nature of the experiment: PARP cleavage, cytochrome c release, Bax and p21 in normal fibroblasts. The class given is cell-based, human. Conditions: 50 microM LLnV. An excerpt: (§1) Proteasome inhibitors activate Bax- and cytochrome c-dependent apoptosis pathway preferentially in transformed human fibroblasts. Normal human fibroblasts are more resistant to proteasome inhibitor-induced apoptosis than transformed and cancer cells (An et al., in press). This is probably due to inability of the normal cells to accumulate Bax protein in response to proteasome inhibition, and consequently failure to release cytochrome c. To test this hypothesis, both SV40-transformed and normal WI-38 cells were treated with 50 microM LLnV for up to 24 hours, followed by measurement of PARP cleavage, cytochrome c release and Bax accumulation. […] In contrast, only after 24 hours treatment, low levels of p85/PARP fragment and cytosolic cytochrome c were detected in normal WI-38 cells (FIGS. 1, A, B, lanes 8-14). […] The levels of Bax/p21 were increased at as early as 4 hours and remained high afterwards. […] The level of another band of ˜47 kDa increased at 4 hours, further increased between 6 and 12 hours, and then decreased (FIG. 1C). The p70 and p47 bands can contain ubiquitinated forms of Bax since similar polypeptides were detected by antibodies to both Bax and ubiquitin (Li et al., 1999). […] Therefore, although unable to activate the Bax- and cytochrome c-dependent apoptotic pathway in response to a low concentration of a proteasome inhibitor, normal cells are capable of undergoing Bax- and cytochrome c-independent apoptosis in response to a proteasome inhibitor at higher concentrations.
(§2) SV40-transformed (VA-13) and normal WI-38 cells were treated with 50 microM LLnV or DMSO (letter D) for up to 24 hours, followed by measurement of PARP cleavage (A), cytochrome c release (B) and Bax accumulation (C; also see FIG. 2). Panel D, exponentially grown VA-13 cells were pretreated with 50 microM LLnV or DMSO for 1 hour, washed with methionine-free medium, and then incubated for 30 minutes in methionine-free medium plus 50 microM LLnV (or DMSO). This was followed by replacing fresh methionine-free medium containing 150 microCi/ml of [^35S]-methionine, 10% dialyzed FBS and 50 microM LLnV (or DMSO). Cells were further incubated for 6 hours, followed by preparation of [^35S]-labeled protein lysates and Bax immunoprecipitates (6A7, PharMingen). The labeled Bax bands are indicated. […] Bax-alpha subcloned into pcDNA3 was used for coupled in vitro transcription/translation in the presence of [^35S]methionine. For Bax cleavage assay, the whole cell extracts were prepared. The [^35S]-labeled Bax (0.7 microl) was incubated with 50 microg protein in assay buffer (containing 50 microM LLM and no Ca^2+) for 4 hours at 37° C. Following incubation, the samples were subjected to SDS gel electrophoresis and autoradiography.

Experiment [1] relates to SV40-transformed (VA-13) cells. Description: PARP cleavage, cytochrome c release and Bax accumulation in SV40-transformed fibroblasts. The class given is cell-based, human.
Source text: as §1, §2

For `CCC[C@@H](C=O)NC(=O)[C@H](CC(C)C)NC(=O)[C@H](CC(C)C)NC(=O)OCc1ccccc1` [LLnV] (Cbz-Leu-Leu-[Nva]-aldehyde), the “time at which low levels of p85/PARP fragment and cytosolic cytochrome c were detected” value with normal WI-38 cells came to 24 h. Moreover, in experiment [1] (50 microM LLnV), the “earliest time of increased Bax/p21 levels” value was determined as 4 h. The Bax levels result in experiment [1] (50 microM LLnV, prior to release of cytochrome c) was “dramatically increased”. In addition, the “time at which cleavage of PARP and release of cytochrome c were detected” value in experiment [1] (50 microM LLnV, up to 24 hours) worked out at 8 h. In experiment [1] (LLnV treatment (FIG. 4B)), the “Bax accumulation and apoptosis (PARP cleavage)” value was “rapidly accumulated Bax protein and subsequently induced apoptosis”.

For the origin of these results see US6692927B2, “Bax degradation involvement in tumor survival and progression” (University of South Florida, priority 2000, dated 2004).
